According to patent US20240252652A1, “PROTEINS HAVING UNNATURAL AMINO ACIDS AND METHODS OF USE” (The Regents of the University of California, priority 2021, published 2024):

What was measured:
HEK293T cells = test: Cell viability assay (CellTiter-Blue); assay type: cell-based, human; details: 0-1 mM SFY, 24 h or 48 h
Experimental: Error bars represent s.e.m.; n=3 independent tests.
Cell viability assay. 2×10^4 cells/well of HEK293T cells were seeded in a 96-well plate. On the next day, the media were replaced with fresh DMEM media supplemented with 0, 0.0625, 0.125, 0.25, 0.5, or 1 mM of SFY. The SFY-treated and control cells were cultured for an additional 24-48 h at 37° C. and then analyzed with CellTiter-Blue R Cell Viability Assay following the manufacturer's instructions.

GST dimer = test: Cross-linking of GST-103SFY-107X in live mammalian cells; assay type: cell-based; details: HEK293T cells, Western blot
Source text: To determine which amino acid residues could react with SFY via proximity-enabled reactivity directly in cells, we coexpressed in E. coli the Z protein and an affibody (Afb) specifically binding it. Based on the crystal structure of Afb-Z complex, we introduced SFY at site 24 of the Z protein and various natural residues at site 7 of the affibody (FIG. 11D), placing the two residues in close proximity upon Afb-Z binding. (Wang et al. J. Am Chem. Soc. 140:4995-4999 (2018)). After expression of Afb(24SFY) and Z(7X) (X=target residue) for 6 h. cells were lysed and analyzed with Western blot under denatured conditions (FIG. 11E). Crosslinking bands corresponding to the adduct of Afb and Z were detected for target residue His. Tyr, and Lys, for both Mm-tRNA^Pyl/MmSFYRS and Ma-tRNA^Pyl/MaSFYRS. We then purified 6×His-tagged Z and Afb proteins from cells and analyzed with SDS-PAGE. Consistently, a protein band corresponding to the cross-linked Z with Afb was clearly observed for Afb-7Lys. Afb-7His, and Afb-7Tyr (FIG. 11E). We further tested if SFY could crosslink with these residues in mammalian cells. […] (Liu et al. J. Am Chem. 141:9458-9462 (2019)). We incorporated SFY at site 103 of GST and mutated residue 107 to various target residues. HEK293T cells expressing these GST mutants were lysed and Western blotted to detect covalent GST dimer formation (FIG. 11G). […]

[1] = test system: nucleoside monophosphates (AMP, UMP, CMP, GMP); test: In vitro incubations of NMPs and SFY (MS detection of adducts); assay type: biochemical; details: 50 mM SFY, 50 mM NMP, 37° C., 16 hours
Experimental: In addition, to check if SFY could cross-link all four nucleotides, we incubated 50 mM SFY with 50 mM different nucleoside monophosphates (NMPs: AMP, UMP, CMP, or GMP) at 37° C. for 16 hours.
In vitro incubations of NMPs and SFY. 50 mM SFY (HCl salt) and 50 mM NMP was incubated in DI H2O. 50 mM NaOH was added to neutralize the HCl salt. The mixture was incubated at 37° C. for […]. Then the reaction mixture was diluted for 50 times in H2O/acetonitrile (50/50, v/v, with 0.1% trifluoracetic acid) and subjected to mass spectrum analysis using positive mode. Mass spectrum analysis was performed on SCIEX MDS, 3200 Q TRAP system.
The molecular weight (MW) of addict products between SFY and NMP was calculated following this equation: MW (adduct product)=MW (SFY)+MW (NMP)−MW (HF).

Structure (SMILES): COc1ccc(C[C@H](N)C(=O)O)cc1S(=O)(=O)F [SFY, (S)-1-carboxy-2-(3-(fluorosulfonyl)-4-methoxyphenyl)ethan-1-aminium]
- toxicity to HEK293T cells (HEK293T cells): did not observe obvious toxicity
- target residues reacting (covalent GST dimer) (GST dimer): react with His. Tyr, and Lys
- cross-linking adducts with NMPs [1]: adducts of SFY with all four NMPs were detected
